In ChEMBL document CHEMBL4138123, “Design, synthesis and biological evaluation of novel pyrazolochalcones as potential modulators of PI3K/Akt/mTOR pathway and inducers of apoptosis in breast cancer cells” (Eur J Med Chem, 2017):

How the values were obtained:
Type in all cases: functional
[1] = tested on: NCI/ADR-RES; experiment: Cytotoxicity against human NCI/ADR-RES cells assessed as cell growth at 0.1 uM after 48 hrs by sulforhodamine B assay relative to control; details: read-out: Activity
[2] = tested on: DU-145; experiment: Cytotoxicity against human DU145 cells assessed as cell growth at 100 uM after 48 hrs by sulforhodamine B assay relative to control; details: DU-145, 48 h, read-out: Activity
[3] = tested on: MOLT-4; experiment: Cytotoxicity against human MOLT4 cells assessed as growth inhibition after 48 hrs by sulforhodamine B assay; details: MOLT-4, 48 h
[4] = tested on: NCI-H460; experiment: Cytotoxicity against human NCI-H460 cells assessed as cell growth at 10 uM after 48 hrs by sulforhodamine B assay relative to control; details: NCI-H460, 48 h, read-out: Activity
[5] = tested on: HL-60(TB); experiment: Cytotoxicity against human HL-60(TB) cells assessed as cell growth at 1 uM after 48 hrs by sulforhodamine B assay relative to control; details: HL-60, 48 h, read-out: Activity
[6] = tested on: KM12; experiment: Cytotoxicity against human KM12 cells assessed as cell growth at 0.1 uM after 48 hrs by sulforhodamine B assay relative to control; details: KM12, 48 h, read-out: Activity
[7] = tested on: DU-145; experiment: Cytotoxicity against human DU145 cells assessed as cell growth at 1 uM after 48 hrs by sulforhodamine B assay relative to control; details: DU-145, 48 h, read-out: Activity
[8] = tested on: HOP-62; experiment: Cytotoxicity against human HOP62 cells assessed as growth inhibition after 48 hrs by sulforhodamine B assay; details: HOP-62, 48 h
[9] = tested on: ACHN; experiment: Cytotoxicity against human ACHN cells assessed as cell growth at 100 uM after 48 hrs by sulforhodamine B assay relative to control; details: read-out: Activity
[10] = tested on: CCRF-CEM; experiment: Cytotoxicity against human CCRF-CEM cells assessed as cell growth at 0.1 uM after 48 hrs by sulforhodamine B assay relative to control; details: read-out: Activity
[11] = tested on: OVCAR-5; experiment: Cytotoxicity against human OVCAR5 cells assessed as growth inhibition after 48 hrs by sulforhodamine B assay; details: OVCAR-5, 48 h
[12] = tested on: ACHN; experiment: Cytotoxicity against human ACHN cells assessed as cell growth at 10 uM after 48 hrs by sulforhodamine B assay relative to control; details: read-out: Activity
[13] = tested on: NCI-H226; experiment: Cytotoxicity against human NCI-H226 cells assessed as growth inhibition after 48 hrs by sulforhodamine B assay; details: NCI-H226, 48 h
[14] = tested on: HOP-62; experiment: Cytotoxicity against human HOP62 cells assessed as cell growth at 100 uM after 48 hrs by sulforhodamine B assay relative to control; details: HOP-62, 48 h, read-out: Activity
[15] = tested on: MDA-MB-231; experiment: Cytotoxicity against human MDA-MB-231 cells assessed as cell growth at 10 uM after 48 hrs by sulforhodamine B assay relative to control; details: MDA-MB-231, 48 h, read-out: Activity
[16] = tested on: HT-29; experiment: Cytotoxicity against human HT-29 cells assessed as growth inhibition after 48 hrs by sulforhodamine B assay; details: HT-29, 48 h
[17] = tested on: SK-OV-3; experiment: Cytotoxicity against human SKOV3 cells assessed as growth inhibition after 48 hrs by sulforhodamine B assay; details: SK-OV-3, 48 h
[18] = tested on: DU-145; experiment: Cytotoxicity against human DU145 cells assessed as cell growth at 0.1 uM after 48 hrs by sulforhodamine B assay relative to control; details: DU-145, 48 h, read-out: Activity
[19] = tested on: HCT-116; experiment: Cytotoxicity against human HCT116 cells assessed as cell growth at 1 uM after 48 hrs by sulforhodamine B assay relative to control; details: HCT-116, 48 h, read-out: Activity
[20] = tested on: NCI-H522; experiment: Cytotoxicity against human NCI-H522 cells assessed as cell growth at 0.1 uM after 48 hrs by sulforhodamine B assay relative to control; details: NCI-H522, 48 h, read-out: Activity
[21] = tested on: MCF7; experiment: Cytotoxicity against human MCF7 cells assessed as growth inhibition after 48 hrs by sulforhodamine B assay; details: MCF7, 48 h
[22] = tested on: HCC 2998; experiment: Cytotoxicity against human HCC2998 cells assessed as cell growth at 1 uM after 48 hrs by sulforhodamine B assay relative to control; details: HCC 2998, 48 h, read-out: Activity
[23] = tested on: OVCAR-4; experiment: Cytotoxicity against human OVCAR4 cells assessed as cell growth at 0.1 uM after 48 hrs by sulforhodamine B assay relative to control; details: OVCAR-4, 48 h, read-out: Activity
[24] = tested on: IGROV-1; experiment: Cytotoxicity against human IGROV1 cells assessed as cell growth at 0.01 uM after 48 hrs by sulforhodamine B assay relative to control; details: IGROV-1, 48 h, read-out: Activity
[25] = tested on: A498; experiment: Cytotoxicity against human A498 cells assessed as growth inhibition after 48 hrs by sulforhodamine B assay; details: A498, 48 h
[26] = tested on: SN12C; experiment: Cytotoxicity against human SN12C cells assessed as cell growth at 0.01 uM after 48 hrs by sulforhodamine B assay relative to control; details: read-out: Activity
[27] = tested on: NCI-H23; experiment: Cytotoxicity against human NCI-H23 cells assessed as cell growth at 0.01 uM after 48 hrs by sulforhodamine B assay relative to control; details: NCI-H23, 48 h, read-out: Activity
[28] = tested on: SF-539; experiment: Cytotoxicity against human SF539 cells assessed as cell growth at 0.01 uM after 48 hrs by sulforhodamine B assay relative to control; details: SF-539, 48 h, read-out: Activity
[29] = tested on: SK-MEL-28; experiment: Cytotoxicity against human SK-MEL-28 cells assessed as cell growth at 100 uM after 48 hrs by sulforhodamine B assay relative to control; details: SK-MEL-28, 48 h, read-out: Activity
[30] = tested on: HCC 2998; experiment: Cytotoxicity against human HCC2998 cells assessed as cell growth at 10 uM after 48 hrs by sulforhodamine B assay relative to control; details: HCC 2998, 48 h, read-out: Activity
[31] = tested on: NCI-H460; experiment: Cytotoxicity against human NCI-H460 cells assessed as cell growth at 100 uM after 48 hrs by sulforhodamine B assay relative to control; details: NCI-H460, 48 h, read-out: Activity
[32] = tested on: HOP-62; experiment: Cytotoxicity against human HOP62 cells assessed as cell growth at 0.01 uM after 48 hrs by sulforhodamine B assay relative to control; details: HOP-62, 48 h, read-out: Activity
[33] = tested on: BT-549; experiment: Cytotoxicity against human BT549 cells assessed as cell growth at 1 uM after 48 hrs by sulforhodamine B assay relative to control; details: BT-549, 48 h, read-out: Activity
[34] = tested on: SF-539; experiment: Cytotoxicity against human SF539 cells assessed as cell growth at 10 uM after 48 hrs by sulforhodamine B assay relative to control; details: SF-539, 48 h, read-out: Activity
[35] = tested on: HL-60(TB); experiment: Cytotoxicity against human HL-60(TB) cells assessed as cell growth at 100 uM after 48 hrs by sulforhodamine B assay relative to control; details: HL-60, 48 h, read-out: Activity
[36] = tested on: HCT-15; experiment: Cytotoxicity against human HCT15 cells assessed as cell growth at 10 uM after 48 hrs by sulforhodamine B assay relative to control; details: HCT-15, 48 h, read-out: Activity

COc1cc2c(cc1OC)C(=O)/C(=C/c1cc(-c3ccc4c(c3)OCO4)n[nH]1)C2
growth at 0.1 µM [1]: 100%
growth at 100 µM [2]: -88%
GI50 [3]: 2.57 µM
TGI [3]: 6.97 µM
CC50 ([3]; read-out: LC50 (the source's name)): > 100 µM
growth at 10 µM [4]: -59%
growth at 1 µM [5]: 86%
growth at 0.1 µM [6]: 99%
growth at 1 µM [7]: 77%
GI50 [8]: 1.53 µM
LC50 [8]: 5.72 µM
TGI [8]: 2.96 µM
growth at 100 µM [9]: -89%
growth at 0.1 µM [10]: 96%
GI50 [11]: 1.56 µM
LC50 [11]: 5.79 µM
TGI [11]: 3 µM
growth at 10 µM [12]: -90%
GI50 [13]: 1.55 µM
TGI [13]: 3.32 µM
growth at 100 µM [14]: -92%
growth at 10 µM [15]: -87%
GI50 [16]: 1.45 µM
LC50 [16]: 6.63 µM
TGI [16]: 3.09 µM
GI50 [17]: 2.89 µM
LC50 [17]: 25.2 µM
TGI [17]: 7.16 µM
growth at 0.1 µM [18]: 101%
growth at 1 µM [19]: 51%
growth at 0.1 µM [20]: 89%
GI50 [21]: 0.33 µM
LC50 [21]: 4.52 µM
TGI [21]: 1.42 µM
growth at 1 µM [22]: 102%
growth at 0.1 µM [23]: 98%
growth at 0.01 µM [24]: 100%
GI50 [25]: 1.33 µM
LC50 [25]: 6 µM
TGI [25]: 2.83 µM
growth at 0.01 µM [26]: 95%
growth at 0.01 µM [27]: 93%
growth at 0.01 µM [28]: 100%
growth at 100 µM [29]: -92%
growth at 10 µM [30]: -88%
growth at 100 µM [31]: -67%
growth at 0.01 µM [32]: 92%
growth at 1 µM [33]: 88%
growth at 10 µM [34]: -96%
growth at 100 µM [35]: -36%
growth at 10 µM [36]: -69%
